{
  "source": "patent US9163020B2",
  "about": "“Azaindole compounds, synthesis thereof, and methods of using the same” (Global Alliance for TB Drug Development, priority 2013, dated 2015)",
  "system": "Mycobacterium tuberculosis (Mtb) H37Rv ATCC 27294",
  "assay": "microbe, parasite or virus in culture",
  "format": "cell-based",
  "settings": "Table 1, read-out: Mtb MIC",
  "note": "Read-outs that look alike come from different tables or passages of the source.",
  "data": [
    {"smiles": "COc1ccc(F)cc1Cn1cc(C(=O)NCC2CC2)c2nccc(C)c21", "note": "[Compound 2, N-(Cyclopropylmethyl)-1-(5-fluoro-2-methoxybenzyl)-7-methyl-1H-pyrrolo[3,2-b]pyridine-3-carboxamide]", "values": [
      {"measurement": "MIC", "setting": "Mycobacterium tuberculosis", "result": 6.25, "unit": "µM"}
    ]},
    {"smiles": "COc1cnc2c(C(=O)NCCF)cn(Cc3ncnc(OC(F)F)c3C)c2c1", "note": "[Compound 42, 1-((6-(Difluoromethoxy)-5-methylpyrimidin-4-yl)methyl)-N-(2-fluoroethyl)-6-methoxy-1H-pyrrolo[3,2-b]pyridine-3-carboxamide]", "values": [
      {"measurement": "MIC", "setting": "Mycobacterium tuberculosis", "result": "< 0.39", "unit": "µM"}
    ]},
    {"smiles": "COc1ncc(C(F)(F)F)cc1Cn1cc(C(=O)NCCF)c2ncccc21", "note": "[Compound 13, N-(2-fluoroethyl)-1-((2-methoxy-5-(trifluoromethyl)pyridin-3-yl)methyl)-1H-pyrrolo[3,2-b]pyridine-3-carboxamide]", "values": [
      {"measurement": "MIC", "setting": "Mycobacterium tuberculosis", "result": "< 0.53", "unit": "µM"}
    ]},
    {"smiles": "COc1ncnc(Cn2cc(C(=O)NCCO)c3ncccc32)c1C", "note": "[Compound 9, N-(2-hydroxyethyl)-1-((6-methoxy-5-methylpyrimidin-4-yl)methyl)-1H-pyrrolo[3,2-b]pyridine-3-carboxamide]", "values": [
      {"measurement": "MIC", "setting": "Mycobacterium tuberculosis", "result": 13.9, "unit": "µM"}
    ]},
    {"smiles": "COc1cnc2c(C(=O)NCCO)cn(Cc3ncnc(OC(F)F)c3C)c2c1", "note": "[Compound 44, 1-((6-(difluoromethoxy)-5-methylpyrimidin-4-yl)methyl)-N-(2-hydroxyethyl)-6-methoxy-1H-pyrrolo[3,2-b]pyridine-3-carboxamide]", "values": [
      {"measurement": "MIC", "setting": "Mycobacterium tuberculosis", "result": 0.78, "unit": "µM"}
    ]},
    {"smiles": "COc1ncnc(Cn2cc(C(=O)NCCF)c3ncc(F)cc32)c1C", "note": "[Compound 19, 6-fluoro-N-(2-fluoroethyl)-1-((6-methoxy-5-methylpyrimidin-4-yl)methyl)-1H-pyrrolo[3,2-b]pyridine-3-carboxamide]", "values": [
      {"measurement": "MIC", "setting": "Mycobacterium tuberculosis", "result": 6.25, "unit": "µM"}
    ]},
    {"smiles": "COc1ncnc(Cn2cc(C(=O)NCC3CC3)c3ncc(C)cc32)c1C", "note": "[Compound 10, N-(cyclopropylmethyl)-1-((6-methoxy-5-methylpyrimidin-4-yl)methyl)-6-methyl-1H-pyrrolo[3,2-b]pyridine-3-carboxamide]", "values": [
      {"measurement": "MIC", "setting": "Mycobacterium tuberculosis", "result": 1.56, "unit": "µM"}
    ]},
    {"smiles": "COc1ncnc(Cn2cc(C(=O)NC[C@H](C)F)c3ncc(C)cc32)c1C", "note": "[Compound 16, (S)—N-(2-fluoropropyl)-1-((6-methoxy-5-methylpyrimidin-4-yl)methyl)-6-methyl-1H-pyrrolo[3,2-b]pyridine-3-carboxamide]", "values": [
      {"measurement": "MIC", "setting": "Mycobacterium tuberculosis", "result": 0.156, "unit": "µM"}
    ]},
    {"smiles": "Cc1cnc2c(C(=O)NCCO)cn(Cc3ncnc(OC(F)F)c3C)c2c1", "note": "[Compound 35, 1-((6-(Difluoromethoxy)-5-methylpyrimidin-4-yl)methyl)-N-(2-hydroxyethyl)-6-methyl-1H-pyrrolo[3,2-b]pyridine-3-carboxamide]", "values": [
      {"measurement": "MIC", "setting": "Mycobacterium tuberculosis", "result": "< 0.39", "unit": "µM"}
    ]},
    {"smiles": "COc1cnc2c(C(=O)NCC(F)F)cn(Cc3ncnc(N(C)C)c3C)c2c1", "note": "[Compound 40, N-(2,2-Difluoroethyl)-1-((6-(dimethylamino)-5-methylpyrimidin-4-yl)methyl)-6-methoxy-1H-pyrrolo[3,2-b]pyridine-3-carboxamide]", "values": [
      {"measurement": "MIC", "setting": "Mycobacterium tuberculosis", "result": "< 0.39", "unit": "µM"}
    ]},
    {"smiles": "COc1ncnc(Cn2cc(C(=O)NCC(F)F)c3ncc(C)cc32)c1C", "note": "[Compound 33, N-(2,2-difluoroethyl)-1-((6-methoxy-5-methylpyrimidin-4-yl)methyl)-6-methyl-1H-pyrrolo[3,2-b]pyridine-3-carboxamide]", "values": [
      {"measurement": "MIC", "result": "<0.39", "unit": "µM"}
    ]},
    {"smiles": "COc1cnc2c(C(=O)NCCF)cn(Cc3ncnc(N(C)C)c3C)c2c1", "note": "[Compound 39, 1-((6-(Dimethylamino)-5-methylpyrimidin-4-yl)methyl)-N-(2-fluoroethyl)-6-methoxy-1H-pyrrolo[3,2-b]pyridine-3-carboxamide]", "values": [
      {"measurement": "MIC", "setting": "Mycobacterium tuberculosis", "result": "< 0.39", "unit": "µM"}
    ]},
    {"smiles": "COc1ncnc(Cn2cc(C(=O)NCCOC(F)(F)F)c3ncccc32)c1C", "note": "[Compound 23, 1-((6-methoxy-5-methylpyrimidin-4-yl)methyl)-N-(2-(trifluoromethoxy)ethyl)-1H-pyrrolo[3,2-b]pyridine-3-carboxamide]", "values": [
      {"measurement": "MIC", "setting": "Mycobacterium tuberculosis", "result": 3.12, "unit": "µM"}
    ]},
    {"smiles": "Cc1cnc2c(C(=O)NCCO)cn(Cc3nccc(OCC(F)(F)F)c3C)c2c1", "note": "[Compound 27, N-(2-hydroxyethyl)-6-methyl-1-((3-methyl-4-(2,2,2-trifluoroethoxy)pyridin-2-yl)methyl)-1H-pyrrolo[3,2-b]pyridine-3-carboxamide]", "values": [
      {"measurement": "MIC", "setting": "Mycobacterium tuberculosis", "result": 3.12, "unit": "µM"}
    ]},
    {"smiles": "COc1ncnc(Cn2cc(NC(=O)CC3CC3)c3ncccc32)c1C", "note": "[Compound 25, 2-cyclopropyl-N-(1-((6-methoxy-5-methylpyrimidin-4-yl)methyl)-1H-pyrrolo[3,2-b]pyridin-3-yl)acetamide]", "values": [
      {"measurement": "MIC", "setting": "Mycobacterium tuberculosis", "result": 25, "unit": "µM"}
    ]},
    {"smiles": "Cc1cnc2c(C(=O)NCC(F)F)cn(Cc3ncc(C)nc3C)c2c1", "note": "[Compound 46, N-(2,2-difluoroethyl)-1-((3,5-dimethylpyrazin-2-yl)methyl)-6-methyl-1H-pyrrolo[3,2-b]pyridine-3-carboxamide]", "values": [
      {"measurement": "MIC", "setting": "Mycobacterium tuberculosis", "result": "< 0.39", "unit": "µM"}
    ]},
    {"smiles": "Cc1cnc2c(C(=O)NCCF)cn(Cc3ncc(C)nc3C)c2c1", "note": "[Compound 45, 1-((3,5-dimethylpyrazin-2-yl)methyl)-N-(2-fluoroethyl)-6-methyl-1H-pyrrolo[3,2-b]pyridine-3-carboxamide]", "values": [
      {"measurement": "MIC", "setting": "Mycobacterium tuberculosis", "result": "< 0.39", "unit": "µM"}
    ]},
    {"smiles": "CC(c1c(F)cccc1F)n1cc(C(=O)NCCF)c2ncccc21", "note": "(stereo not drawn) [Compound 1, 1-(1-(2,6-difluorophenyl)ethyl)-N-(2-fluoroethyl)-1H-pyrrolo[3,2-b]pyridine-3-carboxamide]", "values": [
      {"measurement": "MIC", "setting": "Mycobacterium tuberculosis", "result": 12.5, "unit": "µM"}
    ]},
    {"smiles": "COCCNC(=O)c1cn(Cc2ncnc(OC)c2C)c2cc(C)cnc12", "note": "[Compound 11, 1-((6-methoxy-5-methylpyrimidin-4-yl)methyl)-N-(2-methoxyethyl)-6-methyl-1H-pyrrolo[3,2-b]pyridine-3-carboxamide]", "values": [
      {"measurement": "MIC", "setting": "Mycobacterium tuberculosis", "result": 0.781, "unit": "µM"}
    ]},
    {"smiles": "Cc1cnc2c(C(=O)NCCF)cn(Cc3nccc(OCC(F)(F)F)c3C)c2c1", "note": "[Compound 21, N-(2-fluoroethyl)-6-methyl-1-((3-methyl-4-(2,2,2-trifluoroethoxy)pyridin-2-yl)methyl)-1H-pyrrolo[3,2-b]pyridine-3-carboxamide]", "values": [
      {"measurement": "MIC", "setting": "Mycobacterium tuberculosis", "result": 1.56, "unit": "µM"}
    ]},
    {"smiles": "COCCNC(=O)c1cn(Cc2ncnc(OC)c2C)c2cccnc12", "note": "[Compound 7, 1-((6-methoxy-5-methylpyrimidin-4-yl)methyl)-N-(2-methyl)-1H-pyrrolo[3,2-b]pyridine-3-carboxamide]", "values": [
      {"measurement": "MIC", "setting": "Mycobacterium tuberculosis", "result": "< 1.33", "unit": "µM"}
    ]},
    {"smiles": "Cc1cnc2c(C(=O)NCCF)cn(Cc3cc(F)c(C)nc3C)c2c1", "note": "[Compound 26, 1-((5-fluoro-2,6-dimethylpyridin-3-yl)methyl)-N-(2-fluoroethyl)-6-methyl-1H-pyrrolo[3,2-b]pyridine-3-carboxamide]", "values": [
      {"measurement": "MIC", "setting": "Mycobacterium tuberculosis", "result": 3.12, "unit": "µM"}
    ]},
    {"smiles": "COc1cnc2c(C(=O)NCC(F)F)cn(Cc3ncnc(OC(F)F)c3C)c2c1", "note": "[Compound 43, N-(2,2-Difluoroethyl)-1-((6-(difluoromethoxy)-5-methylpyrimidin-4-yl)methyl)-6-methoxy-1H-pyrrolo[3,2-b]pyridine-3-carboxamide]", "values": [
      {"measurement": "MIC", "setting": "Mycobacterium tuberculosis", "result": "< 0.39", "unit": "µM"}
    ]},
    {"smiles": "COCCNC(=O)c1cn(Cc2cc(F)cnc2OC)c2cccnc12", "note": "[Compound 6]", "values": [
      {"measurement": "MIC", "setting": "Mycobacterium tuberculosis", "result": 1.3, "unit": "µM"}
    ]},
    {"smiles": "COc1cnc2c(C(=O)NCCF)cn(Cc3ncnc(OC)c3C)c2c1", "note": "[Compound 36, N-(2-fluoroethyl)-6-methoxy-1-((6-methoxy-5-methylpyrimidin-4-yl)methyl)-1H-pyrrolo[3,2-b]pyridine-3-carboxamide]", "values": [
      {"measurement": "MIC", "setting": "Mycobacterium tuberculosis", "result": "< 0.39", "unit": "µM"}
    ]},
    {"smiles": "COc1cnc2c(C(=O)NCCO)cn(Cc3ncnc(N(C)C)c3C)c2c1", "note": "[Compound 41, 1-((6-(Dimethylamino)-5-methylpyrimidin-4-yl)methyl)-N-(2-hydroxyethyl)-6-methoxy-1H-pyrrolo[3,2-b]pyridine-3-carboxamide]", "values": [
      {"measurement": "MIC", "setting": "Mycobacterium tuberculosis", "result": "< 0.39", "unit": "µM"}
    ]},
    {"smiles": "COc1nc(C)c(F)cc1Cn1cc(C(=O)NCCF)c2ncccc21", "note": "[Compound 18, 1-((5-fluoro-2-methoxy-6-methylpyridin-3-yl)methyl)-N-(2-fluoroethyl)-1H-pyrrolo[3,2-b]pyridine-3-carboxamide]", "values": [
      {"measurement": "MIC", "setting": "Mycobacterium tuberculosis", "result": 0.781, "unit": "µM"}
    ]},
    {"smiles": "COc1ccc(F)c(F)c1Cn1cc(C(=O)NCCF)c2ncccc21", "note": "[Compound 5, 1-(2,3-difluoro-6-methoxybenzyl)-N-(2-fluoroethyl)-1H-pyrrolo[3,2-b]pyridine-3-carboxamide]", "values": [
      {"measurement": "MIC", "setting": "Mycobacterium tuberculosis", "result": "< 0.66", "unit": "µM"}
    ]},
    {"smiles": "COc1ncc(C(F)(F)F)cc1Cn1cc(C(=O)NC[C@H](C)F)c2ncc(C)cc21", "note": "[Compound 22, (S)—N-(2-fluoropropyl)-1-((2-methoxy-5-(trifluoromethyl)pyridin-3-yl)methyl)-6-methyl-1H-pyrrolo[3,2-b]pyridine-3-carboxamide]", "values": [
      {"measurement": "MIC", "setting": "Mycobacterium tuberculosis", "result": "< 0.391", "unit": "µM"}
    ]},
    {"smiles": "COc1ncc(F)cc1Cn1cc(C(=O)NC[C@H](C)F)c2ncc(C)cc21", "note": "[Compound 24, (S)-1-((5-fluoro-2-methoxypyridin-3-yl)methyl)-N-(2-fluoropropyl)-6-methyl-1H-pyrrolo[3,2-b]pyridine-3-carboxamide]", "values": [
      {"measurement": "MIC", "setting": "Mycobacterium tuberculosis", "result": "< 0.391", "unit": "µM"}
    ]},
    {"smiles": "COc1ncc(C#N)cc1Cn1cc(C(=O)NCCF)c2ncccc21", "note": "[Compound 14, 1-((5-cyano-2-methoxypyridin-3-yl)methyl)-N-(2-fluoroethyl)-1H-pyrrolo[3,2-b]pyridine-3-carboxamide]", "values": [
      {"measurement": "MIC", "setting": "Mycobacterium tuberculosis", "result": 3.12, "unit": "µM"}
    ]},
    {"smiles": "COc1ncc(F)cc1Cn1cc(C(=O)NCCF)c2ncc(C)cc21", "note": "[Compound 15, 1-((5-fluoro-2-methoxypyridin-3-yl)methyl)-N-(2-fluoroethyl)-6-methyl-1H-pyrrolo[3,2-b]pyridine-3-carboxamide]", "values": [
      {"measurement": "MIC", "setting": "Mycobacterium tuberculosis", "result": 1.56, "unit": "µM"}
    ]},
    {"smiles": "Cc1c(OCC(F)(F)F)ccnc1Cn1cc(C(=O)NCCF)c2ncccc21", "note": "[Compound 12, N-(2-fluoroethyl)-1-((3-methyl-4-(2,2,2-trifluoroethoxy)pyridin-2-yl)methyl)-1H-pyrrolo[3,2-b]pyridine-3-carboxamide]", "values": [
      {"measurement": "MIC", "setting": "Mycobacterium tuberculosis", "result": 6.25, "unit": "µM"}
    ]},
    {"smiles": "COc1ncnc(Cn2cc(C(=O)NCCF)c3ncc(Br)cc32)c1C", "note": "[Compound 20, 6-bromo-N-(2-fluoroethyl)-1-((6-methoxy-5-methylpyrimidin-4-yl)methyl)-1H-pyrrolo[3,2-b]pyridine-3-carboxamide]", "values": [
      {"measurement": "MIC", "setting": "Mycobacterium tuberculosis", "result": 0.781, "unit": "µM"}
    ]},
    {"smiles": "Cc1cnc2c(C(=O)NCCF)cn(Cc3ncnc(N(C)C)c3C)c2c1", "note": "[Compound 29, 1-((6-(dimethylamino)-5-methylpyrimidin-4-yl)methyl)-N-(2-fluoroethyl)-6-methyl-1H-pyrrolo[3,2-b]pyridine-3-carboxamide]", "values": [
      {"measurement": "MIC", "setting": "Mycobacterium tuberculosis", "result": 1.56, "unit": "µM"}
    ]},
    {"smiles": "COc1ncnc(Cn2cc(C(=O)NC[C@@H](C)O)c3ncc(C)cc32)c1C", "note": "[Compound 28, (R)—N-(2-hydroxypropyl)-1-((6-methoxy-5-methylpyrimidin-4-yl)methyl)-6-methyl-1H-pyrrolo[3,2-b]pyridine-3-carboxamide]", "values": [
      {"measurement": "MIC", "setting": "Mycobacterium tuberculosis", "result": 6.25, "unit": "µM"}
    ]}
  ]
}
